According to paper PMC5218887 (Neurochemistry International, 2017):
Entries after “also recorded” stand apart in the source; their conditions may differ. Non-standard residues stand in square brackets, D forms with d. Primed or numbered codes have the meaning given here. No end group written: not given here. pS′ = not defined here

How the values were obtained:
[1] = test system: GPR139; details: read-out: EC50 on GPR139; ref Isberg et al., 2014; cited from earlier work
[2] = test system: GPR139; details: rats; ref Liu et al., 2015; cited from earlier work
[3] = molecular target: T1, human GPR139 (Homo sapiens, UniProt Q6DWJ6); test: Fluo-4 Ca2+-assay, agonist testing on CHO-GPR139; assay type: cell-based; details: for agonist activity on GPR139: CHO-GPR139, result in words; for relative Emax ± SEM: compared to Emax of cmp1a
T1 sequence (Q6DWJ6 1-353): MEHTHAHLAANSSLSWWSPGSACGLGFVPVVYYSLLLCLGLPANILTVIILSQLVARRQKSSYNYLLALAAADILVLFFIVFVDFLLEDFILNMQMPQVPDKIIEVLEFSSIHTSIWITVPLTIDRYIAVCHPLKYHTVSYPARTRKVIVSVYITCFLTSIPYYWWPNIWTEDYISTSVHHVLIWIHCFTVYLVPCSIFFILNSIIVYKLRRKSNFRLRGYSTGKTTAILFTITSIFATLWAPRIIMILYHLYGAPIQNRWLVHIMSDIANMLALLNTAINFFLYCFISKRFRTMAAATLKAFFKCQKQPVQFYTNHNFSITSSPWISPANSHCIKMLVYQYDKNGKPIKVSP

[4] = molecular target: T1, human GPR139; test: Fluo-4 Ca2+-assay, antagonist testing against EC80; assay type: cell-based; details: against EC80 (800 nM) of cmp1a; data not shown
[5] = molecular target: T2, human muscarinic acetylcholine receptor M1 (Homo sapiens, UniProt P11229); test: Fluo-4 Ca2+-assay on CHO-M1; assay type: cell-based; details: CHO-M1, specificity test; data not shown
T2 sequence (P11229 1-460): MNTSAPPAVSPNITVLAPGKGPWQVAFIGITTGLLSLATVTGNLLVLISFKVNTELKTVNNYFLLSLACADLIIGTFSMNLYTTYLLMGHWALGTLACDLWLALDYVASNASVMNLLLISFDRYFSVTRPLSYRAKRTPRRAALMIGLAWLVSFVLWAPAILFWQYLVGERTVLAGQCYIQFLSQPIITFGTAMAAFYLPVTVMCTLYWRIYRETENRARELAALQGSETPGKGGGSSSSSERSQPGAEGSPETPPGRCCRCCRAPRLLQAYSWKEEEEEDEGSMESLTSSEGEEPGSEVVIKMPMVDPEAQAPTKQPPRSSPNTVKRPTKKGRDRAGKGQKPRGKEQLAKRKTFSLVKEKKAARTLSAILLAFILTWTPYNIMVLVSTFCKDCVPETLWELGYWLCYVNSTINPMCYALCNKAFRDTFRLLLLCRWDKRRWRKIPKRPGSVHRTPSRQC

[6] = molecular target: MC4R (Homo sapiens, UniProt P32245); test: cAMP accumulation assay; assay type: cell-based; details: tested in the highest concentration; normalized to Emax of α-MSH
Sequence of MC4R (P32245 whole entry, species assumed): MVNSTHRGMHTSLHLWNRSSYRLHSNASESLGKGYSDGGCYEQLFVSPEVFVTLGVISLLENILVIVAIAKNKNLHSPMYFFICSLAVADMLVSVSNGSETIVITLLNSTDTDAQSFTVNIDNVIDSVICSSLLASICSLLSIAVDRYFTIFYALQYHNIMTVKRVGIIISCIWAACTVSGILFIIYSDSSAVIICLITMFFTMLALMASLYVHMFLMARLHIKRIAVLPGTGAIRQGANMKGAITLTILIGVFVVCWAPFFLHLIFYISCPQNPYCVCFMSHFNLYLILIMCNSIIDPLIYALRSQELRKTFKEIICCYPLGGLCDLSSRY

Compound	agonist activity on GPR139 [3]	antagonist activity on GPR139 [4]	other results
N[C@@H](Cc1ccccc1)C(=O)O [L-Phe, L-phenylalanine]	–	–	EC50 [1]: 320 µM
C[C@H](NC(=O)CNC(=O)c1cccc(Cl)c1)c1ccccc1 [JNJ-63533054]	–	–	spontaneous locomotion activity [2]: decreased spontaneous locomotion activity
N=C(N)NCCC[C@H](NC(=O)[C@H](Cc1ccccc1)NC(=O)[C@@H](N)Cc1c[nH]cn1)C(=O)N[C@@H](Cc1c[nH]c2ccccc12)C(=O)O [HFRW]	–	–	Emax ([3]; read-out: relative Emax ± SEM): 64 ± 6%
COc1cc(OC)cc(C(=O)NNC(=O)Nc2cccc3ccccc23)c1 [compound 1a, 2-(3,5-dimethoxybenzoyl)-N-(naphthalen-1-yl)hydrazine-1-carboxamide]	–	–	EC80 on GPR139 ([3]; concentration used for antagonist testing): 800 nM
thyrotropin releasing hormone [TRH]	No agonist or antagonist activity	No agonist or antagonist activity	–
cap-α-MSH4-10: α-MSH4-10 (MEHFRWG), N-terminal acetylated and C-terminal amidated	–	–	relative Emax ± SEM ([3]; at 16 μM (highest concentration tested, no plateau)): 21 ± 8 (at 16 μM) %
26RFa	No agonist or antagonist activity	No agonist or antagonist activity	–
CSCC[C@H](NC(=O)[C@H](CCCNC(=N)N)NC(=O)[C@H](Cc1ccc(O)cc1)NC(=O)[C@@H]1CCCN1C(=O)CNC(=O)[C@H](CCC(=O)O)NC(=O)[C@H](CC(=O)O)NC(=O)[C@H](CCCCN)NC(=O)[C@H](CCCCN)NC(=O)[C@H](CCC(=O)O)NC(=O)[C@H](C)N)C(=O)N[C@@H](CCC(=O)O)C(=O)N[C@@H](Cc1c[nH]cn1)C(=O)N[C@@H](Cc1ccccc1)C(=O)N[C@@H](CCCNC(=N)N)C(=O)N[C@@H](Cc1c[nH]c2ccccc12)C(=O)NCC(=O)N[C@@H](CO)C(=O)N1CCC[C@H]1C(=O)N1CCC[C@H]1C(=O)N[C@@H](CCCCN)C(=O)N[C@@H](CC(=O)O)C(=O)O [β-MSH]	showed agonist activity	–	activity on the muscarinic acetylcholine M1 receptor [5]: none of these peptides showed any activity; fold more potent on GPR139 than L-Trp and L-Phe ([3]; compared with L-Trp (EC50 = 220 μM) and L-Phe (EC50 = 320 μM)): 20–120 fold; Emax ([3]; read-out: relative Emax ± SEM): 101 ± 11%
Ac-SYSMEHFRW-NH2 [cap-α-MSH1-9]	–	–	Emax at 61 µM ([3]; read-out: relative Emax ± SEM): 53 ± 9%; response of α-MSH on MC4R [6]: 50%
melanin-concentrating hormone [MCH]	No agonist or antagonist activity	No agonist or antagonist activity	–
SY[pSer]SMEHFRWGKPV-NH2 (N-terminal SY[pSer]; C-terminal amide) [α-MSHP-Ser]	neither of the two peptides showed any agonist or antagonist activity	neither of the two peptides showed any agonist or antagonist activity	–
CSCC[C@H](NC(=O)[C@H](CO)NC(=O)[C@H](Cc1ccc(O)cc1)NC(=O)[C@H](CO)NC(C)=O)C(=O)N[C@@H](CCC(=O)O)C(=O)N[C@@H](Cc1c[nH]cn1)C(=O)N[C@@H](Cc1ccccc1)C(=O)N[C@@H](CCCNC(=N)N)C(=O)N[C@@H](Cc1c[nH]c2ccccc12)C(=O)NCC(N)=O [cap-α-MSH1-10]	–	–	Emax at 14 µM ([3]; read-out: relative Emax ± SEM): 31 ± 4%
[Arg^8]-vasopressin	No agonist or antagonist activity	No agonist or antagonist activity	–
oxytocin	No agonist or antagonist activity	No agonist or antagonist activity	–
γ1-melanocyte stimulating hormone [γ1-MSH]	No agonist or antagonist activity; also recorded: did not show any activity	No agonist or antagonist activity	–
MEHFRWG [α-MSH4-10]	–	–	relative Emax ± SEM ([3]; at 101 μM (highest concentration tested, no plateau)): 13 ± 2 (at 101 μM) %
N[C@@H](Cc1c[nH]c2ccccc12)C(=O)O [L-Trp, L-tryptophan]	–	–	EC50 [1]: 220 µM
SY[pSer]SMEHFRWGKPVGKK (SY[pS′]SMEHFRWGKPVGKK) [ACTH1-16,P-Ser]	neither of the two peptides showed any agonist or antagonist activity	neither of the two peptides showed any agonist or antagonist activity	–
